The test system of one assay is A. baumannii biofilm. Description: MBEC, MBEC Inoculation Tray by Innovotech (to 10^2 CFU/peg in 24 hours). As to conditions: Table 4. The format is cell-based, Acinetobacter baumannii. From the text:
(§1) To determine the MBEC of each polyamine compound, the MBEC Inoculation Tray by Innovotech, formerly known as the Calgary biofilm device, was used. Within this device, biofilms grow on the surface of polystyrene pegs, 96 of which are attached to a lid. These pegs are inserted into a flat bottom 96-well plate. In this instance, the MBEC of a molecule was defined as the concentration of compound (in μg/mL) required to reduce 10^5 or 10^6 CFU/peg (biofilm levels varied by isolate) to 10^2 CFU/peg in a 24-hour period.
(§2) Following the manufacturer's guidelines, biofilms were grown on the surface of each peg by first making a 0.5 McFarland of each isolate. The 0.5 McFarland was diluted 1:100 in CAMHB. Into each well of a flat bottom 96-well plate, 150 μL of broth were pipetted. The plate was shaken at 100 rpm for 24 hours (P. aeruginosa and A. baumannii) or 48 hours (MRSA). The pegs were then placed into a separate flat bottom 96-well plate for 10 seconds with 200 μL of phosphate buffered saline (PBS) in each well to remove nonadherent cells. The lid was then placed into a 96-well plate that contained varying concentrations of antimicrobial with 200 μL per well. The plate was incubated for 24 hours at 37° C. after which time 100 μL of broth were plated on TSA. TSA plates were incubated 24 hours at 37° C. and the number of CFU counted to calculate the CFU/peg. In this instance, the MBEC was defined as the concentration of antimicrobial required to reduce 10^5 or 10^6 CFU/peg to 10^2 CFU/peg in a 24 hour period.
To determine the MBEC, the MBEC Inoculation Tray by Innovotech, formerly known as the Calgary biofilm device, is used. Within this device, biofilms grow on the surface of polystyrene pegs, 96 of which are attached to a lid. These pegs are inserted into a flat bottom 96-well plate. In this instance, the MBEC of a molecule is defined as the concentration of compound required to reduce approximately 10^6 CFU/peg to approximately 10^2 CFU/peg in a 24-hour period.
Following the manufacturer's guidelines, biofilms are grown on the surface of each peg by first making a 0.5 McFarland of A. baumannii. The 0.5 McFarland is diluted 1:100 in CAMHB broth. Into each well of a flat bottom 96-well plate, 150 μL of broth is pipetted. The plate is shaken at 100 rpm for 24 hours. The pegs are placed into a separate flat bottom 96-well plate for 10 seconds with 200 μL of phosphate buffered saline (PBS) in each well to remove nonadherent cells. The lid is placed into a 96-well plate that contains varying concentrations of antimicrobial with 200 μL of broth per well. The plate is incubated for 24 hours at 37° C. after which time 100 μL of broth is plated on TSA. TSA plates is incubated 24 hours at 37° C. and the number of CFU counted to calculate the CFU/peg.
MBEC data were collected using the MBEC Inoculation Tray by Innovotech. The MBEC was defined in these preliminary results as the concentration of antimicrobial required to reduce 10^5 or 10^6 CFU/peg to 10^2 CFU/peg in a 24-hour period.

For a further assay, the system named is MRSA. Description: MIC against MRSA as defined by CLSI (FIG. 25 series). As to conditions: Staphylococcus aureus. The format is cell-based, methicillin-resistant Staphylococcus aureus. As to the method:
To determine the MIC of the polyamine chains alone and the synthesized compounds against MRSA and P. aeruginosa ATCC 27853, a modified protocol from the Clinical and Laboratory Standards Institute (CLSI) guideline M26-A was used. […] All data was collected using cation adjusted MHB for standardization.
As mentioned, MRSA and P. aeruginosa ATCC 27853 were grown on Columbia blood agar plates prior to experimentation. From the blood agar plates, a 0.5 McFarland standard was made of each isolate. This equated to approximately 5×10^7 cells/mL for the MRSA isolate and approximately 3×10^7 cells/mL for the P. aeruginosa ATCC 27853 isolate. Of the 0.5 McFarland stock solution, 50 μL were added to MHB. […] All tests were performed such that a final volume of 5 mL of MHB were obtained. This provided a final bacterial concentration of approximately 5×10^5 cells/mL.
Each sample was incubated in glass test tubes at 37° C. for 24 hours, then plated in duplicate on tryptic soy agar (TSA) using a 10-fold dilution series. TSA plates were further incubated 24 hours at 37° C. The number of colony forming units (CFU) that grew were counted in order to calculate the number of bacteria that were present per mL in the original MHB solution.

For assay [1], the system named is P. aeruginosa biofilm. Description: MBEC, MBEC Inoculation Tray by Innovotech (to 10^2 CFU/peg in 24 hours). The class given is cell-based. Particulars: Pseudomonas aeruginosa; Table 3A titled MICs; group head missing, values match MBEC; read-out: MIC, P. aeruginosa (second P. aeruginosa).
From the text: as §1
as §2, with “In this instance, the MBEC was defined as the concentration of antimicrobial required to reduce 10^5 or 10^6 CFU/peg to 10^2 CFU/peg in a 24 hour period.” left out

In assay [2] the test system is P. aeruginosa biofilm. As to the kind of experiment: EBEC, high number biofilms on PEEK membranes (10^9 to 10^2 CFU/PEEK membrane in 24 hours). The format is cell-based. As to conditions: Pseudomonas aeruginosa; Table 3B titled MICs; group head missing, values match EBEC. As to the method:
In addition to determining the MIC and the MBEC of polyamine compounds against planktonic bacteria and low number biofilms, our group wanted to determine the efficacy of polyamine compounds against high number biofilms. To do so, biofilms were grown on the surface of polyetheretherketone (PEEK) membranes using a membrane biofilm reactor. This reactor is similar to the CDC biofilm reactor, but rather than growing biofilms on coupon surfaces, the reactor was modified to hold PEEK membranes. In short, to grow biofilms within this system, 500 mL of brain heart infusion (BHI) broth were inoculated with 1 mL of a 0.5 McFarland. The reactor was placed on a hot plate set at 34° C. and the bacteria were grown under batch conditions for 24 hours. Following this protocol, biofilms typically grow to 10^9 CFU/PEEK membrane. […] A solution of 10% BHI was then flowed through the reactor at a rate of 6.94 mL/min for an additional 24 hours. PEEK membranes were then removed and placed into 2 mL of CAMHB that contained a desired concentration of polyamine compound or antibiotic. The EBEC was defined as the concentration of antimicrobial required to reduce a biofilm from approximately 10^9 CFU/PEEK membrane to approximately 10^2 CFU/PEEK membrane in a 24-hour period.

The next assay has as its system MRSA biofilm. The description is as above. The format is cell-based, methicillin-resistant Staphylococcus aureus. Particulars: Staphylococcus aureus, Table 3B titled MICs, group head missing, values match EBEC.

≈ marks a conversion by molar mass, not a printed value. Where “and” joins values, the source holds several entries; their conditions need not be identical. Equal values may be shown once. A value given as a limit tells only on which side of the number the result lay.

As to “Polymyxin B sulfate [reference compound]”, the “MBEC, A. baumannii” value with A. baumannii biofilm was 50 μg/mL and 36 μM.
The same measure, in the same setting: then `NCCCNCCCNCc1cc(CNCCCNCCCN)cc(-c2ccccc2)c1` [CZ-58], with > 50 μg/mL and > 113 μM.
Consider `NCCCNCCCNCc1cccc(CNCCCNCCCN)c1` [CZ-25], for which the MIC in the assay on MRSA was 45 µg/mL (≈ 123 µM); with P. aeruginosa biofilm [1], greater than 500 µg/mL; against P. aeruginosa biofilm [2] it was greater than 5000 µg/mL; in the assay with MRSA biofilm, greater than 5000 µg/mL. Besides, in the assay with A. baumannii biofilm, the “MBEC, A. baumannii” value is 450 μg/mL and 1234 μM.
As to `NCCCNCCCNCc1cc(CNCCCNCCCN)cc(CNCCCNCCCN)c1` [CZ-52], the MIC against MRSA was 3 µg/mL (≈ 5.91 µM); with P. aeruginosa biofilm [1], 400 µg/mL (≈ 788 µM); against P. aeruginosa biofilm [2], greater than 5000 µg/mL; against MRSA biofilm it was 250 µg/mL (≈ 492 µM). Also, the “MBEC, A. baumannii” value in the assay with A. baumannii biofilm is > 500 μg/mL and 995 μM.

These data come from patent US20150274639A1, “METHODS OF USE FOR COMPOSITIONS COMPRISING A BIOCIDAL POLYAMINE” (Curza Global, LLC, priority 2013, published 2015).
